Read-outs that look alike come from different tables or passages of the source.
Experiments:
[1] = Experimental distribution coefficient (eLogD) by LC retention time; assay type: physicochemical; conditions: for chromatographic logD: C18 column (LC retention time); for eLogD: Table S5
Description: For the eLogD assays ([Waring, 2010]), each compound (5 μl) from a 5 mM stock solution was diluted in 245 μl of a solution containing buffers A (5% MeOH, 10 mM ammonium acetate, pH 7.4) and B (100% MeOH, pH 7.4) (50:50). Nine control compounds with known eLogD and column retention times (acyclovir, atenolol, antipyrine, fluconazole, metoprolol, carbamazepine, ketoconazole, tolnaftate, and amiodarone; eLogD values ranging from −1.86 to 6.1) were subjected to LC-MS/MS in triplicate before and after the analysis of the test compounds. Retention times were recorded for each control and test compound in a C18 column. The retention time of each control compound was plotted against the respective eLogD values described in the literature ([Lombardo et al., 2002]; [Lombardo et al., 2004]; [Alelyunas et al., 2010]). The resulting linear equation (y = mx + b) was used to calculate the eLogD values of the test compounds, in which x is the retention time in minutes and y is the eLogD value.

[2] = tested on: T. cruzi intracellular amastigotes; experiment: Assay against T. cruzi intracellular amastigotes (Tulahuen lacZ strain in HFF-1 fibroblasts); assay type: cell-based, Trypanosoma cruzi
Description: Biological assays against T. cruzi intracellular amastigotes were performed as reported previously using the T. cruzi Tulahuen strain, which is genetically engineered to express the E. coli β-galactosidase gene lacZ ([Buckner et al., 1996]). β-Galactosidase catalyzes a colorimetric reaction with chlorophenol red β-D-galactopyranoside (CPRG, Sigma Chemical Co., St. Louis, MO) as the substrate. The assays were conducted in 96-well tissue culture plates, and the compounds to be tested were prepared in 100% DMSO. Epimastigotes were maintained in liver infusion tryptone (LIT) enriched with 10% fetal calf serum (FCS), streptomycin, and penicillin at 28°C. Epimastigotes were converted to trypomastigotes by incubation in Grace’s insect medium (Sigma–Aldrich, St. Louis, MO) enriched with 10% FCS at 28°C. Human HFF-1 fibroblasts were seeded at 2 × 10^3/well in 80 μl of RPMI 1640 without phenol red and incubated overnight at 37°C and 5% CO2. Trypomastigotes were seeded at 1.0 × 10^4/well in 20 μl of RPMI 1640, and the plates were incubated at 37°C and 5% CO2. The next day, the synthesized compounds were added (50 μl) in 3-fold serial dilutions at concentrations ranging from 0.4 to 300 μM, and the plates were incubated at 37°C and 5% CO2. Each compound concentration was assayed in triplicate. After 120 h, 50 μl of chlorophenol red β-D-galactopyranoside (CPRG, Sigma–Aldrich) and IGEPAL CA-630 (Sigma–Aldrich) at a final concentration of 0.1% were added. The absorbance was measured at a wavelength of 570 nm in an automated microplate reader. The data were transferred to SigmaPlot 10.0 (Systat Software Inc., Erkrath, Germany) to determine the IC50 values. Benznidazole (BZ, Sigma–Aldrich) was used as a positive control, and untreated wells (100% parasite growth) were used as negative controls in all plates. All compounds were tested in three independent assays.

[3] = In vitro metabolic stability in human liver microsomes; assay type: in vitro ADME; conditions: human, liver microsomes
Outline: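 Compounds incubated at 37°C with mouse or human liver microsomes (0.25 mg/ml) in potassium phosphate buffer with NADPH; samples quenched in ACN/MeOH at 0, 5, 10, 15, 20 and 30 min. Parent remaining by LC-MS/MS relative to 0 min; T½ = ln(2)/k, CLint = k*1000/0.25 (μL/min/mg).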

[4] = Trypanosoma cruzi, HFF-1, Table 4, mean ± SD of three assays
[5] = Table 5, CLint/fu, read-out: CLint_u (L/h/kg) human (converted)
[6] = Table 5, read-out: CLint (L/h/kg) human (converted)
[7] = Trypanosoma cruzi, HFF-1, 120 h, Table 3, 120 h, mean ± SD of three assays
[8] = Table S5, CLint/fu, read-out: CLint_u (L/h/kg) Human (converted)
[9] = Table S5, read-out: CLint (L/h/kg) Human (converted)

Work on O=C(COc1ccccc1Br)NCCc1nc2ccccc2[nH]1 [Compound 18] yielded a chromatographic logD ([1]; pH 7.4, Table 5) of 3.9, an IC50 ([2]; Table 4, mean ± SD of three assays) of 1.63 ± 0.57 µM and an IC50 [2, 4] of 1.6 µM. The CLint scaled at 5 µM [3, 5] was 16 L/h/kg and the CLint scaled at 5 µM [3, 6] was 9.2 L/h/kg.

O=C(COc1ccccc1)NCCc1nc2ccccc2n1CCOc1ccccc1 [Compound 20] showed a chromatographic logD ([1]; pH 7.4, Table 3, pH 7.4) of 4.24, an eLogD [1] of 4.24 and an IC50 [2, 7] of 2.04 ± 0.6 µM. The IC50 [2, 4] was 2.04 ± 0.6 µM, the CLint scaled at 5 µM [3, 8] was 301 L/h/kg and the CLint scaled at 5 µM [3, 9] was 123 L/h/kg.

In the case of O=C(COc1ccccc1)NCCc1nc2ccccc2n1CCCOc1ccccc1 [Compound 24], the chromatographic logD ([1]; pH 7.4, Table 3, pH 7.4) is reported as 4.45, the eLogD [1] is reported as 4.45 and the IC50 [2, 7] is reported as 1.43 ± 0.4 µM. The IC50 [2, 4] was 1.43 ± 0.4 µM, the CLint scaled at 5 µM [3, 8] was 524 L/h/kg and the CLint scaled at 5 µM [3, 9] was 142 L/h/kg.

For Cn1c(CCNC(=O)COc2ccccc2)nc2ccccc21 [Compound 25], the chromatographic logD ([1]; pH 7.4, Table 3, pH 7.4) was 2.93, the eLogD [1] was 2.93 and the “IC50 T. cruzi (μM)” value ([2]; Table 3, 120 h, mean ± SD of three assays) was “inactive”. The IC50 [2, 7] was roughly 100 µM, the CLint scaled at 5 µM [3, 8] was 4.61 L/h/kg and the CLint scaled at 5 µM [3, 9] was 4.57 L/h/kg.

Compound O=C(COc1ccccc1)NCCc1nc2ccccc2n1Cc1ccccc1 [Compound 26] has a chromatographic logD ([1]; pH 7.4, Table 3, pH 7.4) of 4.06, an eLogD [1] of 4.06 and an IC50 [2, 7] of 7.4 ± 2 µM. The IC50 [2, 4] was 7.4 ± 2 µM, the CLint scaled at 5 µM [3, 8] was 196 L/h/kg and the CLint scaled at 5 µM [3, 9] was 120 L/h/kg.

Compound C=CCCn1c(CCNC(=O)COc2ccccc2)nc2ccccc21 [Compound 27] has a chromatographic logD ([1]; pH 7.4, Table 3, pH 7.4) of 3.75, an eLogD [1] of 3.75 and an IC50 [2, 7] of 6.9 ± 2.2 µM. The IC50 [2, 4] was 6.9 ± 2.2 µM, the CLint scaled at 5 µM [3, 8] was 70.2 L/h/kg and the CLint scaled at 5 µM [3, 9] was 60.4 L/h/kg.

For NC(=O)Cn1c(CCNC(=O)COc2ccccc2)nc2ccccc21 [Compound 28], the chromatographic logD ([1]; pH 7.4, Table 3, pH 7.4) was 2.16, the eLogD [1] was 2.16 and the IC50 [2, 7] was 6.8 ± 0.9 µM. It also gave an IC50 [2, 4] of 6.8 ± 0.9 µM, a CLint scaled at 5 µM [3, 8] of less than 1.53 L/h/kg and a CLint scaled at 5 µM [3, 9] of less than 1.5 L/h/kg.

O=C(COc1ccccc1[N+](=O)[O-])NCCc1nc2ccccc2[nH]1 [Compound 32] showed a chromatographic logD ([1]; pH 7.4, Table 5) of 3.6, an IC50 [2, 4] of 7.9 ± 2.13 µM and a CLint scaled at 5 µM [3, 5] of 39.2 L/h/kg. The CLint scaled at 5 µM [3, 6] was 25.5 L/h/kg.

With O=C(COc1ccc(Br)cc1)NCCc1nc2ccccc2[nH]1 [Compound 33] the chromatographic logD ([1]; pH 7.4, Table 5) was 2.8, the IC50 [2, 4] was 6.68 ± 2.35 µM and the CLint scaled at 5 µM [3, 5] was 12.5 L/h/kg. For the same compound, the CLint scaled at 5 µM [3, 6] was 10.4 L/h/kg.

O=C(COc1ccc2ccccc2c1Br)NCCc1nc2ccccc2[nH]1 [Compound 34] showed a chromatographic logD ([1]; pH 7.4, Table 5) of 4.4, an IC50 [2, 4] of 16.2 ± 3.51 µM and a CLint scaled at 5 µM [3, 5] of 540 L/h/kg. For the same compound, the CLint scaled at 5 µM [3, 6] was 49.9 L/h/kg.

With O=C(COc1ccc2ccccc2c1)NCCc1nc2ccccc2[nH]1 [Compound 35] the chromatographic logD ([1]; pH 7.4, Table 5) was 3.9, the IC50 [2, 4] was 46.1 ± 6.21 µM and the CLint scaled at 5 µM [3, 5] was 43.9 L/h/kg. For the same compound, the CLint scaled at 5 µM [3, 6] was 21.1 L/h/kg.

Cc1ccccc1OCC(=O)NCCc1nc2ccccc2o1 [Compound 37] gave a chromatographic logD ([1]; pH 7.4, Table 5) of 3.9, an IC50 [2, 4] of 2.9 ± 0.66 µM and a CLint scaled at 5 µM [3, 5] of 26.9 L/h/kg. The CLint scaled at 5 µM [3, 6] was 22.9 L/h/kg.

C=CCCn1c(CCNC(=O)COc2ccccc2Cl)nc2ccccc21 [Compound 38] gave a chromatographic logD ([1]; pH 7.4, Table 5) of 4.1, an IC50 [2, 4] of 11.1 ± 3.19 µM and a CLint scaled at 5 µM [3, 5] of 501 L/h/kg. It also gave a CLint scaled at 5 µM [3, 6] of 230 L/h/kg.

From PMC8767159, “Multiparameter Optimization of Trypanocidal Cruzain Inhibitors With In Vivo Activity and Favorable Pharmacokinetics” (Frontiers in Pharmacology, 2022)
